Measurements taken from patent US20240115547A1, “PSYCHOTROPIC AGENTS AND USES THEREOF” (LB PHARMACEUTICALS INC., priority 2021, published 2024).

Tested on: Dopamine (e.g., D2/D3)
Assay: Dopamine RO % by raclopride PET after LB-102, various dosage regimens (Example 3)
Assay type: in vivo, human
Details: for Dopamine RO % (Caudate + Putamen): group mean
Procedure: Healthy subjects were dosed orally with LB102 of 50 mg QD (n=4), 75 mg QD (n=4), 100 mg QD (n=4), 50 mg SS (n=2), or 100 mg SS (n=2). Subjects were, on average, 33 years old. Subjects dosed QD were given a single dose on day 1 after which PET scans were obtained; and subjects dosed SS, i.e., steady state, were dosed once a day for 4 days and PET scans were obtained after dosing on Day 4.
Dynamic […] raclopride PET scans were obtained 0 h, 2.5 h, 7.5 h, and 23.5 h after LB-102 administration for the 50 mg and 100 mg QD treatment groups and after LB-102 administration of Day 4 for the 50 mg SS and 100 mg SS treatment groups; and 0 h, 3.5 h, 23.5 h, and 47.5 h after LB-102 administration for the 75 mg QD treatment group. Dopamine % RO were calculated using the STRM method (https://pubmed.ncbi.nlm.nih.gov/9345505/, which is incorporated herein by reference) and the combined RO % (average of caudate and putamen RO %) are shown as squares FIGS. 5A (50 mg QD), 5B (75 mg QD), 5C (100 mg QD); and FIGS. 6A (50 mg SS Day 4) and 6B (100 mg SS Day 4); and summarized in Table 3-A below.
Dynamic ^11C raclopride PET scan results for calculation of dopamine RO % were measured in caudate, putamen, thalamus, and temporal lobe of each subject tested, and are summarized in Tables 3-B to 3-F below.

[1] = 50 mg QD, Subject 1, 2.5 h after LB-102 admin.
[2] = 50 mg QD, Subject 1, 7.5 h after LB-102 admin.
[3] = 50 mg QD, Subject 1, 23.5 h after LB-102 admin.
[4] = 50 mg QD, Subject 2, 2.5 h after LB-102 admin.
[5] = 50 mg QD, Subject 2, 7.5 h after LB-102 admin.
[6] = 50 mg QD, Subject 2, 23.5 h after LB-102 admin.
[7] = 50 mg QD, Subject 3, 7.5 h after LB-102 admin.
[8] = 50 mg QD, Subject 3, 23.5 h after LB-102 admin.
[9] = 50 mg QD, Subject 4, 2.5 h after LB-102 admin.
[10] = 50 mg QD, Subject 4, 7.5 h after LB-102 admin.
[11] = 50 mg QD, Subject 4, 23.5 h after LB-102 admin.
[12] = 50 mg SS (Day 4), Subject 1, ~3 h after LB-102 admin.
[13] = 50 mg SS (Day 4), Subject 1, ~8 h after LB-102 admin.
[14] = 50 mg SS (Day 4), Subject 1, ~24 h after LB-102 admin.
[15] = 50 mg SS (Day 4), Subject 2, ~3 h after LB-102 admin.
[16] = 50 mg SS (Day 4), Subject 2, ~8 h after LB-102 admin.
[17] = 50 mg SS (Day 4), Subject 2, ~24 h after LB-102 admin.
[18] = 75 mg QD, Subject 1, 3.5 h after LB-102 admin.
[19] = 75 mg QD, Subject 1, 23.5 h after LB-102 admin.
[20] = 75 mg QD, Subject 1, 47.5 h after LB-102 admin.
[21] = 75 mg QD, Subject 2, 3.5 h after LB-102 admin.
[22] = 75 mg QD, Subject 2, 23.5 h after LB-102 admin.
[23] = 75 mg QD, Subject 2, 47.5 h after LB-102 admin.

CCN1CCCC1CNC(=O)c1cc(S(=O)(=O)CC)c(NC)cc1OC (stereo not shown) [LB-102]
Dopamine RO % (Caudate + Putamen) (50 mg QD, 0 h after LB-102 administration): 0% | Dopamine RO % (Caudate + Putamen) (50 mg QD, 3 h after LB-102 administration): 24% | Dopamine RO % (Caudate + Putamen) (50 mg QD, 8 h after LB-102 administration): 38% | Dopamine RO % (Caudate + Putamen) (50 mg QD, 24 h after LB-102 administration): 42% | Dopamine RO % Caudate [1]: 26% | Dopamine RO % Putamen [1]: 23% | Dopamine RO % Temporal lobe [1]: 25% | Dopamine RO % Thalamus [1]: 40% | Dopamine RO % Caudate [2]: 52% | Dopamine RO % Putamen [2]: 47% | Dopamine RO % Temporal lobe [2]: 32% | Dopamine RO % Thalamus [2]: 48% | Dopamine RO % Caudate [3]: 58% | Dopamine RO % Putamen [3]: 48% | Dopamine RO % Temporal lobe [3]: 30% | Dopamine RO % Thalamus [3]: 39% | Dopamine RO % Caudate [4]: 28% | Dopamine RO % Putamen [4]: 25% | Dopamine RO % Temporal lobe [4]: 16% | Dopamine RO % Thalamus [4]: 42% | Dopamine RO % Caudate [5]: 42% | Dopamine RO % Putamen [5]: 37% | Dopamine RO % Temporal lobe [5]: 14% | Dopamine RO % Thalamus [5]: 31% | Dopamine RO % Caudate [6]: 45% | Dopamine RO % Putamen [6]: 36% | Dopamine RO % Temporal lobe [6]: 11% | Dopamine RO % Thalamus [6]: 23% | Dopamine RO % Caudate [7]: 36% | Dopamine RO % Putamen [7]: 25% | Dopamine RO % Temporal lobe [7]: 20% | Dopamine RO % Thalamus [7]: 42% | Dopamine RO % Caudate [8]: 53% | Dopamine RO % Putamen [8]: 37% | Dopamine RO % Temporal lobe [8]: 18% | Dopamine RO % Thalamus [8]: 45% | Dopamine RO % Caudate [9]: 23% | Dopamine RO % Putamen [9]: 19% | Dopamine RO % Temporal lobe [9]: 23% | Dopamine RO % Thalamus [9]: 26% | Dopamine RO % Caudate [10]: 43% | Dopamine RO % Putamen [10]: 34% | Dopamine RO % Temporal lobe [10]: 43% | Dopamine RO % Thalamus [10]: 28% | Dopamine RO % Caudate [11]: 45% | Dopamine RO % Putamen [11]: 34% | Dopamine RO % Temporal lobe [11]: 45% | Dopamine RO % Thalamus [11]: 18% | Dopamine RO % Caudate [12]: 75% | Dopamine RO % Putamen [12]: 67% | Dopamine RO % Temporal lobe [12]: 18% | Dopamine RO % Thalamus [12]: 44% | Dopamine RO % Caudate [13]: 78% | Dopamine RO % Putamen [13]: 69% | Dopamine RO % Temporal lobe [13]: 17% | Dopamine RO % Thalamus [13]: 40% | Dopamine RO % Caudate [14]: 75% | Dopamine RO % Putamen [14]: 66% | Dopamine RO % Temporal lobe [14]: 35% | Dopamine RO % Thalamus [14]: 30% | Dopamine RO % Caudate [15]: 74% | Dopamine RO % Putamen [15]: 66% | Dopamine RO % Temporal lobe [15]: 26% | Dopamine RO % Thalamus [15]: 37% | Dopamine RO % Caudate [16]: 76% | Dopamine RO % Putamen [16]: 70% | Dopamine RO % Temporal lobe [16]: 25% | Dopamine RO % Thalamus [16]: 43% | Dopamine RO % Caudate [17]: 73% | Dopamine RO % Putamen [17]: 63% | Dopamine RO % Temporal lobe [17]: 34% | Dopamine RO % Thalamus [17]: 56% | Dopamine RO % (Caudate + Putamen) (50 mg SS (once a day for 4 days), 3 h after Day 4 administration): 69% | Dopamine RO % (Caudate + Putamen) (50 mg SS (once a day for 4 days), 24 h after Day 4 administration): 68% | average dopamine (e.g., D2/D3) RO % in caudate, putamen, and thalamus (50 mg SS and 100 mg SS, at least from Day 4 since the treatment began): significantly stabilized | Dopamine RO % (Caudate + Putamen) (75 mg QD, 0 h after LB-102 administration): 0% | Dopamine RO % (Caudate + Putamen) (75 mg QD, 3 h after LB-102 administration): 33% | Dopamine RO % (Caudate + Putamen) (75 mg QD, 24 h after LB-102 administration): 55% | Dopamine RO % Caudate [18]: 27% | Dopamine RO % Putamen [18]: 20% | Dopamine RO % Temporal lobe [18]: 12% | Dopamine RO % Thalamus [18]: 31% | Dopamine RO % Caudate [19]: 70% | Dopamine RO % Putamen [19]: 52% | Dopamine RO % Temporal lobe [19]: 45% | Dopamine RO % Thalamus [19]: 64% | Dopamine RO % Caudate [20]: 53% | Dopamine RO % Putamen [20]: 38% | Dopamine RO % Temporal lobe [20]: 4% | Dopamine RO % Thalamus [20]: 16% | Dopamine RO % Caudate [21]: 53% | Dopamine RO % Putamen [21]: 48% | Dopamine RO % Temporal lobe [21]: 21% | Dopamine RO % Thalamus [21]: 44% | Dopamine RO % Caudate [22]: 58% | Dopamine RO % Putamen [22]: 53% | Dopamine RO % Temporal lobe [22]: 17% | Dopamine RO % Thalamus [22]: 37% | Dopamine RO % Caudate [23]: 45% | Dopamine RO % Putamen [23]: 39% | Dopamine RO % Temporal lobe [23]: 16% | Dopamine RO % Thalamus [23]: 25% | Dopamine RO % Caudate (75 mg QD, Subject 3, 3.5 h after LB-102 admin.): 57%
